Assay results from the NIST ThermoML archive (doi:10.1016/j.jct.2004.11.009).

Columns and labels:
[1] = 101.33 kPa, Liquid
[2] = xn = mol fraction of the nth substance listed; conditions: 101.33 kPa, Liquid, x2 = 0

Cc1cccnc1 [3-methylpyridine]
[1]
Conditions	mass density [kg/m3]	viscosity [mPa·s]
293.15 K	956	0.9459
303.15 K	946.6	0.8318
313.15 K	937.7	0.7352
323.15 K	928.3	0.6565
333.15 K	919.3	0.5936
343.15 K	910.3	0.539

O [water] + Cc1cccnc1
[2]
Conditions	mass density [kg/m3]	viscosity [mPa·s]
293.15 K	–	1.002
303.15 K	–	0.7977
313.15 K	–	0.6532
323.15 K	988	0.547
333.15 K	983.2	0.4665
343.15 K	977.8	0.404
